Source: patent EP0187355A1, “Process for preparing beta-lactam antibiotics” (E.R. Squibb & Sons, Inc., priority 1981, dated 1982)
Structures can show the parent of a compound that is named as a salt.

Assays:
Assay in all cases: MIC, agar dilution
Format in all cases: cell-based
[1] = tested on: Enterobacter cloacae, 8236; conditions: Enterobacter cloacae, 8236, 18 h, K-10 agar, 10^4 CFU, 37°C
Method in brief: (§1)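 Broth cultures grown 18-20 h at 37°C, diluted 1:100 in K-10 broth, applied by multipoint inoculator at 10^4 CFU onto K-10 agar holding twofold compound dilutions, 100 to 0.05 µg/ml final. MIC taken as lowest concentration inhibiting growth.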

[2] = tested on: Streptococcus agalactiae, 9287; conditions: Streptococcus agalactiae, 9287, 18 h, K-10 agar, 10^4 CFU, 37°C, read-out: M.I.C.
Method in brief: as §1

Micrococcus luteus, 2495 = conditions: K-10 agar, 10^4 CFU, 37°C; for MIC: Micrococcus luteus, 2495, 18 h, read-out: M.I.C.
Method in brief: as §1

Escherichia coli, 8294 = conditions: Escherichia coli, 8294, 18 h, K-10 agar, 10^4 CFU, 37°C
Method in brief: (§2)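 Overnight broth cultures (37°C, 18–20 h) were diluted 1:100 and spotted onto K-10 agar plates containing twofold compound dilutions (final 100 to 0.05 µg/ml), giving 10^4 CFU per spot. After 18 h at 37°C, MIC was read as the lowest concentration inhibiting growth.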

[3] = tested on: Klebsiella pneumoniae, 9527; conditions: Klebsiella pneumoniae, 9527, 18 h, K-10 agar, 10^4 CFU, 37°C, read-out: M.I.C.
Method in brief: as §2

[4] = tested on: Streptococcus faecalis, 9011; conditions: Enterococcus faecalis; Streptococcus faecalis, 9011; K-10 agar, 10^4 CFU, 37°C, 18 hours; read-out: M.I.C.
Method in brief: as §2

Escherichia coli, 10857 = conditions: Escherichia coli, 10857, 18 h, K-10 agar, 10^4 CFU, 37°C
Method in brief: as §2

[5] = tested on: Klebsiella aerogenes, 10440; conditions: K-10 agar, 10^4 CFU, 37°C, 18 hours, read-out: M.I.C.
Method in brief: as §2

Proteus rettgeri, 8479 = conditions: Providencia rettgeri, K-10 agar, 10^4 CFU, 37°C, 18 hours, read-out: M.I.C.
Method in brief: as §2

[6] = tested on: Staphylococcus aureus, 2399; conditions: Staphylococcus aureus, 2399, 18 h, Staphylococcus aureus, 2399; K-10 agar, 10^4 CFU, 37°C, 18 hours; read-out: M.I.C.
Method in brief: as §2

[7] = tested on: Acinetobacter calcoaceticus, 8333; conditions: Acinetobacter calcoaceticus, 8333, 18 h, K-10 agar, 10^4 CFU, 37°C, read-out: M.I.C.
Method in brief: as §2

[8] = tested on: Staphylococcus aureus, 1276; conditions: Staphylococcus aureus, 1276; K-10 agar, 10^4 CFU, 37°C, 18 hours; read-out: M.I.C.
Method in brief: as §2

[9] = tested on: Pseudomonas aeruginosa, 9545; conditions: Pseudomonas aeruginosa, 9545, 18 h, K-10 agar, 10^4 CFU, 37°C, read-out: M.I.C.
Method in brief: as §2

[10] = tested on: Citrobacter freundii, 9518; conditions: K-10 agar, 10^4 CFU, 37°C, 18 hours, read-out: M.I.C.
Method in brief: as §2

[11] = tested on: Pseudomonas aeruginosa, 8329; conditions: K-10 agar, 10^4 CFU, 37°C, 18 hours, read-out: M.I.C.
Method in brief: as §2

Proteus vulgaris, 9416 = conditions: K-10 agar, 10^4 CFU, 37°C, 18 hours, read-out: M.I.C.
Method in brief: as §2

Salmonella typhosa, 1195 = conditions: Salmonella enterica, TYPHOSA, 18 h, K-10 agar, 10^4 CFU, 37°C
Method in brief: as §2

Proteus mirabilis, 3855 = conditions: Proteus mirabilis, 3855, 18 h, K-10 agar, 10^4 CFU, 37°C, read-out: M.I.C.
Method in brief: as §2

[12] = tested on: Staphylococcus aureus, 2400; conditions: Staphylococcus aureus, 2400; K-10 agar, 10^4 CFU, 37°C, 18 hours; read-out: M.I.C.
Method in brief: as §2

[13] = tested on: Enterobacter aerogenes, 10078; conditions: Klebsiella aerogenes, 10078, 18 h, Enterobacter aerogenes, 10078; K-10 agar, 10^4 CFU, 37°C, 18 hours; read-out: M.I.C.
Method in brief: as §2

Shigella sonnei, 8449 = conditions: Shigella sonnei, 8449, 18 h, K-10 agar, 10^4 CFU, 37°C
Method in brief: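 MIC, the lowest compound concentration preventing visible growth, is read after plates incubate 18 h at 37°C. Plates hold K-10 agar with twofold drug dilutions spanning 100 to 0.05 µg/ml, each spot-inoculated with 10^4 CFU.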

[14] = tested on: Staphylococcus aureus, 10165; conditions: Staphylococcus aureus, 10165; K-10 agar, 10^4 CFU, 37°C, 18 hours; read-out: M.I.C.
Method in brief: as §2

Escherichia coli, 10909 = conditions: K-10 agar, 10^4 CFU, 37°C, 18 hours
Method in brief: as §2

Escherichia coli, 10896 = conditions: K-10 agar, 10^4 CFU, 37°C, 18 hours
Method in brief: as §2

[15] = tested on: Serratia marcescens, 9783; conditions: K-10 agar, 10^4 CFU, 37°C; for MIC: Serratia marcescens, 9783, 18 h, read-out: M.I.C.
Method in brief: as §2

SMILES | MIC [1] | MIC [2] | MIC (Escherichia coli, 8294) | MIC [3] | MIC [4] | MIC (Escherichia coli, 10857) | MIC [5] | MIC (Proteus rettgeri, 8479) | MIC [6] | MIC [7] | MIC [8] | MIC [9] | MIC [10] | MIC [11] | MIC (Proteus vulgaris, 9416) | MIC (Salmonella typhosa, 1195) | MIC (Proteus mirabilis, 3855) | MIC [12] | MIC [13] | MIC (Shigella sonnei, 8449) | also measured
C[C@H]1[C@H](NC(=O)OCc2ccccc2)C(=O)N1S(=O)(=O)O [Example 2, (3S-trans)-4-Methyl-2-oxo-3-[[(phenylmethoxy)carbonyl]-amino]-1-azetidinesulfonic acid, potassium salt] | > 100 µg/mL | 100 µg/mL | > 100 µg/mL | > 100 µg/mL | > 100 µg/mL | > 100 µg/mL | > 100 µg/mL | > 100 µg/mL | 100 µg/mL | > 100 µg/mL | 100 µg/mL | > 100 µg/mL | > 100 µg/mL | > 100 µg/mL | > 100 µg/mL | > 100 µg/mL | > 100 µg/mL | 100 µg/mL | > 100 µg/mL | > 100 µg/mL | MIC (Micrococcus luteus, 2495): 100 µg/mL; MIC [14]: > 100 µg/mL; MIC (Escherichia coli, 10909): > 100 µg/mL; MIC (Escherichia coli, 10896): > 100 µg/mL; MIC [15]: > 100 µg/mL
C[C@H]1[C@H](NC(=O)Cc2ccccc2)C(=O)N1S(=O)(=O)O [Example 3, (3S-trans)-4-Methyl-2-oxo-3-[(phenylacetyl)amino]-1-azetidinesulfonic acid, potassium salt] | > 100 µg/mL | 25 µg/mL | 100 µg/mL | 100 µg/mL | > 100 µg/mL | 50 µg/mL | 100 µg/mL | 50 µg/mL | 50 µg/mL | > 100 µg/mL | 50 µg/mL | 50 µg/mL | 100 µg/mL | > 100 µg/mL | 100 µg/mL | 50 µg/mL | 100 µg/mL | 50 µg/mL | > 100 µg/mL | 50 µg/mL | MIC (Micrococcus luteus, 2495): 25 µg/mL; MIC [14]: 100 µg/mL; MIC (Escherichia coli, 10909): 25 µg/mL; MIC (Escherichia coli, 10896): 50 µg/mL; MIC [15]: 50 µg/mL
CON=C(C(=O)NC1C(=O)N(S(=O)(=O)O)C1C)c1csc(N)n1 (stereo not drawn) [Example 5, [3S-[3α(Z),4β]]-3-[[2-Amino-4-thiazolyl) (methoxyimino)-acetyl]amino]-4-methyl-2-oxo-1-azetidinesulfonic acid, potassium salt] | 0.2 µg/mL | 3.1 µg/mL | 0.1 µg/mL | 0.1 µg/mL | > 100 µg/mL | < 0.05 µg/mL | 0.2 µg/mL | < 0.05 µg/mL | 100 µg/mL | 12.5 µg/mL | 100 µg/mL | 0.8 µg/mL | 0.1 µg/mL | 100 µg/mL | < 0.05 µg/mL | < 0.05 µg/mL | 0.1 µg/mL | 50 µg/mL | 0.4 µg/mL | 0.1 µg/mL | M.I.C. (Micrococcus luteus, 2495; 18 hours, potassium salt): 3.1 µg/mL; MIC [14]: > 100 µg/mL; MIC (Escherichia coli, 10909): < 0.05 µg/mL; MIC (Escherichia coli, 10896): 0.1 µg/mL; M.I.C. ([15]; 18 hours, potassium salt): 0.8 µg/mL
